Columns and labels:
[1] = target: T1, human 5-hydroxytryptamine-2C (h5-HT2C) receptor (Homo sapiens, UniProt P28335); assay: [125I]DOI binding to membranes of CHO cells expressing the human 5-HT2C receptor; conditions: [125I]DOI radioligand, CHO cell membranes, room temperature 60 min; read-out: 5-HT2C Affinity Ki
T1 construct: expressed in transfected cells; host or cells: CHO (Chinese Hamster Ovary) cells; membranes
T1 sequence (P28335 33-458): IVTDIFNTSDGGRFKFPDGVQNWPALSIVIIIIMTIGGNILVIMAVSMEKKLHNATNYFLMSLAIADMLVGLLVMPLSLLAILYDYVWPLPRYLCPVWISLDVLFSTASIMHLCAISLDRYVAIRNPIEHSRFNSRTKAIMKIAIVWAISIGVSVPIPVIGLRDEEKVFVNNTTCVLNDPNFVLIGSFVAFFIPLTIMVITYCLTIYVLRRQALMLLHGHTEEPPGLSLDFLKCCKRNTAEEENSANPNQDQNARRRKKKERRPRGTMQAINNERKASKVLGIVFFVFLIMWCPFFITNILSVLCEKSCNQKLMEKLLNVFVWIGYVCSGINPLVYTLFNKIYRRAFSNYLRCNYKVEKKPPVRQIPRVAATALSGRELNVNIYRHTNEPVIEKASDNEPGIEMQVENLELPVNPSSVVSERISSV

human 5-HT2C receptor = target: T2, human 5-HT2C receptor (Homo sapiens, UniProt P28335); assay: 5-HT2C receptor-stimulated calcium mobilization (FLIPR) in CHO cells; type: cell-based; conditions: for Emax: CHO, read-out: 5-HT2C Function Emax (%); for Emax / 5-HT2C Function Emax (%): percentage of the response observed with a maximally effective concentration of 5-HT; for EC50: calcium mobilization, CHO cells stably expressing human 5-HT2C, read-out: 5-HT2C Function EC50;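 on all read-outs here: Fluo-3-AM fluorescence read on FLIPR every 1 s, agonist added after 10 baseline reads, response taken as peak minus lowest raw fluorescence count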
T2 sequence (P28335 33-458): T1 sequence (P28335 33-458)

SMILES	Ki [1] [nM]	Emax (human 5-HT2C receptor) [%]	EC50 (human 5-HT2C receptor) [nM]	5-HT2C Function Emax (%) (human 5-HT2C receptor)
COc1ccc(OC)c(-c2cc(OC)cc3c2OC(CN)C3)c1 (racemic) [Example 371, (±)-{[7-(2,5-dimethoxyphenyl)-5-methoxy-2,3-dihydro-1-benzofuran-2-yl]methyl}amine]	14	80	64	–
NCC1Cc2cccc(-c3c(Cl)cccc3Cl)c2O1 (single isomer, unassigned; (+)) [Example 142, (+)-1-[7-(2,6-dichlorophenyl)-2,3-dihydro-1-benzofuran-2-yl]methanamine]	1.6	–	101	80
NCC1Cc2cc(C(F)(F)F)cc(-c3cccnc3)c2O1 (racemic) [Example 343, (±)-{[7-pyridin-3-yl-5-(trifluoromethyl)-2,3-dihydro-1-benzofuran-2-yl]methyl}amine]	12	90	49	–
NCC1Cc2cc(F)cc(-c3ccsc3)c2O1 (racemic) [Example 203, (±)-[(5-fluoro-7-thien-3-yl-2,3-dihydro-1-benzofuran-2-yl)methyl]amine]	8.5	80	187	–
CC(C)c1cccc2c1OC(CN)C2 (single isomer, unassigned; (+)) [Example 20, (+)-(7-isopropyl-2,3-dihydro-1-benzofuran-2-yl)methylamine]	24	–	178	70
NCC1Cc2cc(F)cc(-c3ccc(F)cc3F)c2O1 (racemic) [Example 215, (±)-{[7-(2,4-difluorophenyl)-5-fluoro-2,3-dihydro-1-benzofuran-2-yl]methyl}amine]	5	80	80	–
NCC1Cc2cccc(-c3ccccc3F)c2O1 (racemic) [Example 50, (±)-1-[7-(2-fluorophenyl)-2,3-dihydro-1-benzofuran-2-yl]methanamine]	1	100	14	–
NCC1Cc2cc(C3CCCC3)cc(-c3ccccc3Cl)c2O1 (racemic) [Example 310, (±)-{[5-cyclopentyl-7-(2-chlorophenyl)-2,3-dihydro-1-benzofuran-2-yl]methyl}amine]	13	90	137	–
Cc1cccc(C)c1-c1cccc2c1OC(CN)C2 (racemic) [Example 56, (±)-1-[7-(2,6-dimethylphenyl)-2,3-dihydro-1-benzofuran-2-yl]methanamine]	1	100	60	–
NCC1Cc2cccc(-c3cccnc3)c2O1 (racemic) [Example 170, (±)-[(7-pyridin-3-yl-2,3-dihydro-1-benzofuran-2-yl)methyl]amine]	3.3	90	14	–
CNCC1Cc2cc(F)cc(-c3cc(Cl)ccc3Cl)c2O1 (single isomer, unassigned; (-)) [Example 451, (−)-{[5-fluoro-7-(2,5-dichlorophenyl)-2,3-dihydro-1-benzofuran-2-yl]methyl}methylamine]	0.31	–	137	80
Cc1cc2c(c(-c3ccc(Cl)cc3Cl)c1)OC(CN)C2 (single isomer, unassigned; (+)) [Example 299, (+)-{[7-(2,4-dichlorophenyl)-5-methyl-2,3-dihydro-1-benzofuran-2-yl]methyl}amine]	0.19	–	0.1	100
NCC1Cc2cccc(-c3ccc(Cl)cc3)c2O1 (single isomer, unassigned; (+)) [Example 77, (+)-1-[7-(4-chlorophenyl)-2,3-dihydro-1-benzofuran-2-yl]methanamine]	2	100	8	–
Cc1ccccc1-c1ccc(F)c2c1OC(CN)C2 (racemic) [Example 99, (±)-1-[4-fluoro-7-(2-methylphenyl)-2,3-dihydro-1-benzofuran-2-yl]methanamine]	21	60	838	–
CC(C)c1cccc2c1OC(CN)C2 (single isomer, unassigned; (-)) [Example 19, (−)-(7-isopropyl-2,3-dihydro-1-benzofuran-2-yl)methylamine]	2	–	66	100
Cc1cc2c(c(-c3ccccc3F)c1)OC(CN)C2 (racemic) [Example 283, (±)-{[7-(2-fluorophenyl)-5-methyl-2,3-dihydro-1-benzofuran-2-yl]methyl}amine]	1.2	100	6	–

SMILES	Ki [1] [nM]	Emax (human 5-HT2C receptor) [%]	EC50 (human 5-HT2C receptor) [nM]	5-HT2C Function Emax (%) (human 5-HT2C receptor)
NCC1Cc2cccc(-c3ccccc3Cl)c2O1 (single isomer, unassigned; (+)) [Example 130, (+)-1-[7-(2-chlorophenyl)-2,3-dihydro-1-benzofuran-2-yl]methanamine]	4.8	–	54	80
NCC1Cc2cccc(-c3ccc(F)cc3F)c2O1 (racemic) [Example 146, (±)-1-[7-(2,4-difluorophenyl)-2,3-dihydro-1-benzofuran-2-yl]methanamine]	2.4	90	5	–
CNCC1Cc2cccc(-c3ccccc3Cl)c2O1 (single isomer, unassigned; (+)) [Example 410, (+)-N-methyl-1-[7-(2-chlorophenyl)-2,3-dihydro-1-benzofuran-2-yl]methanamine]	0.08	90	0.05	–
CNCC1Cc2cccc(-c3cccc(OC)c3OC)c2O1 (racemic) [Example 423, (±)-[(N-methyl-1-[7-(2,3-dimethoxyphenyl)-2,3-dihydro-1-benzofuran-2-yl]methanamine]	6.1	70	28	–
CNCC1Cc2cc(OC)cc(-c3c(C)cccc3C)c2O1 (single isomer, unassigned; (+)) [Example 561, (+)-{[7-(2,6-dimethylphenyl)-5-methoxy-2,3-dihydro-1-benzofuran-2-yl]methyl}methylamine]	2.7	–	21	80
Cc1ccc(-c2cc(F)cc3c2OC(CN)C3)cc1 (racemic) [Example 201, (±)-{[5-fluoro-7-(4-methylphenyl)-2,3-dihydro-1-benzofuran-2-yl]methyl}amine]	8	80	396	–
COc1cc2c(c(-c3cccc(C)c3C)c1)OC(CN)C2 (racemic) [Example 363, (±)-{[7-(2,3-dimethylphenyl)-5-methoxy-2,3-dihydro-1-benzofuran-2-yl]methyl}amine]	26	70	225	–
Cc1cc2c(c(-c3cccc(Cl)c3)c1)OC(CN)C2 (racemic) [Example 288, (±)-{[7-(3-chlorophenyl)-5-methyl-2,3-dihydro-1-benzofuran-2-yl]methyl}amine]	7.1	100	38	–
NCC1Cc2cccc(-c3c(F)cccc3F)c2O1 (racemic) [Example 139, (±)-1-[7-(2,6-difluorophenyl)-2,3-dihydro-1-benzofuran-2-yl]methanamine]	2.5	90	6	–
NCC1Cc2cc(F)cc(-c3ccccc3Cl)c2O1 (single isomer, unassigned; (-)) [Example 102, (−)-1-[7-(2-chlorophenyl)-5-fluoro-2,3-dihydro-1-benzofuran-2-yl]methanamine]	8	–	32	65
COc1cccc(-c2cc(C)cc3c2OC(CN)C3)c1OC (racemic) [Example 294, (±)-{[7-(2,3-dimethoxyphenyl)-5-methyl-2,3-dihydro-1-benzofuran-2-yl]methyl}amine]	0.11	90	8	–
Cc1ccc(C)c(-c2cccc3c2OC(CN)C3)c1 (racemic) [Example 161, (±)-{[7-(2,5-dimethylphenyl)-2,3-dihydro-1-benzofuran-2-yl]methyl}amine]	8	90	32	–
COc1cccc(-c2cc(F)cc3c2OC(CN)C3)c1OC (racemic) [Example 212, (±)-{[7-(2,3-dimethoxyphenyl)-5-fluoro-2,3-dihydro-1-benzofuran-2-yl]methyl}amine]	2.4	90	11	–
NCC1Cc2cc(C(F)(F)F)cc(-c3ccccc3Cl)c2O1 (racemic) [Example 315, (±)-{[5-(trifluoromethyl)-7-(2-chlorophenyl)-2,3-dihydro-1-benzofuran-2-yl]methyl}amine]	25	90	19	–
NCC1Cc2cc(Cl)cc(-c3cccnc3)c2O1 (racemic) [Example 266, (±)-{[(5-chloro-7-pyridin-3-yl-2,3-dihydro-1-benzofuran-2-yl)methyl]amine]	4.9	90	3	–
Cc1ccccc1-c1cccc2c1CC(CN)O2 (single isomer, unassigned; (+)) [Example 5, (+)-1-[4-(2-methylphenyl)-2,3-dihydro-1-benzofuran-2-yl]methanamine]	9	90	208	–
